In patent US20240360089A1, “Metabolically Stable HDAC Inhibitors with Trifluoromethylpyruvamide as Metal-Binding Group” (The University of Toledo, priority 2023, published 2024):
Like-named read-outs stand apart in the source and are kept apart here.

Assays:
[1] = tested on: HCT116 cells; experiment: Growth inhibition / cell viability assay (methylene blue), HCT116; format: cell-based, human
Procedure: Cell feasibility was examined using methylene blue staining. Cells were plated at a rate of 5000/well in 96 well plates (n=3) respectively and treated the next day. Three days after treatment, cells were fixed/stained in methylene blue saturated in 50% ethanol for 30 min at room temperature. Excessive water was used to wash off extra dye from the plates.

[2] = S9 fraction metabolic stability assay (LC-ESI-MS); format: in vitro ADME; details: human liver S9 fraction
Excerpt: Previous studies established that trifluoromethyl ketones are metabolically unstable and reduced in vivo to trifluoromethyl alcohols (TFMAs). This metabolic reduction caused a major loss in activity. […] It was believed that in TFPAs, the hydrate form of the ketone is stabilized compared to TFMKs, and is therefore less susceptible to reductive metabolism. […] Metabolic stability studies are primarily conducted using liver microsomal assays, as the predominant cytochrome P450 enzymes present in them are responsible for the metabolism of most xenobiotics in the human body. However, P450 transformations are mostly oxidative in nature, precluding their use to assess the stability of ketone drugs against reductive metabolism. […] Thus, using a liver extract containing both cytosol and microsomal enzymes would be more appropriate for this assay. This was accomplished by using the S9 fraction, which is basically the supernatant obtained from centrifugation of hepatocytes at 9000 g and contains both liver cytosol and microsomal enzymes. LC-ESI-MS was used to monitor the reduction of TFPA 60 over time and it was compared with TFMK 91.
A protocol similar to the one previously employed by others using Human Liver S9 fractions instead of liver microsomes was used for the metabolism studies. The assay was initiated by incubating a mixture of the substrate (0.02 mM), buffer (0.1M), and NADPH (1 mM) at 37° C. for ten minutes, followed by addition of the S9 fraction (0.5 mg) to the mixture and gentle mixing. The total volume of the reaction mixture was maintained at 1 mL. […] The reactions in the aliquots were terminated by adding an equal volume of ethyl acetate, mixing thoroughly, and transferring into micro centrifuge tubes. They were vortexed for 2 minutes and then subjected to centrifugation at 10,000×g for 15 minutes to remove the proteins. The top organic layers were extracted and evaporated under reduced pressure. The organic residues from the aliquots were dissolved in methanol first, then diluted 1:1 with water, and analyzed using LC-ESI-MS. A 450 μL aliquot of compound 60 with concentration of 0.02 mM contains 9 nanomoles, which after evaporation, was dissolved in 500 μL of methanol to give 18 μM in concentration of 60. This was diluted 1:1 with water to give a final concentration of 9 μM, which was used for LC-ESI-MS. Similarly, 200 μL of TFMK 91 at a concentration of 0.02 mM contains 4 nanomoles, which after removing ethyl acetate, and dissolving in 250 μL of methanol gives 16 μM concentration of 91. This was diluted 1:1 with water to give 8 μM final concentration for LC-ESI-MS.
The solvent flow rate was 0.2 mL/min, and the sample injection volume was 20 μL. […]

[3] = tested on: sixty cell lines; experiment: NCI 60 cell five-dose assay; format: cell-based; details: Total Growth Inhibition
[4] = tested on: PARP1; experiment: Western blot analysis of PARP1 cleavage in HCT116 cells; format: cell-based, human; details: HCT116 cells treated for 24 h; measure of caspase dependent cell death
Procedure: FIG. 13: Western blot analysis of PARP1 cleavage. HCT116 cells were treated with compounds 83, 84, and 85 at the indicated concentrations for 24 hr. Western blots were probed with an antibody that recognizes a cleaved form of PARP (Cell Signaling Technology 5626) as a measure of caspase dependent cell death.
To determine whether the compounds herein induced apoptosis, the enzyme Poly (ADP ribose) polymerase 1 (PARP1) was analyzed by western blotting. Caspase-dependent proteolytic cleavage of PARP1 is one of the hall marks of apoptosis and antibodies that specifically recognize the cleavage products are available. […] HCT116 cells were treated with compounds 83, 84, and 85 for 24 h.
NCI-H522 cell pellets obtained were lysed using lysis buffer containing 50 mM Tris (pH 7.4), 150 mM NaCl, 0.5% NP-40, (supplemented with 1 μg/ml aprotinin, 2 μg/ml leupeptin, 1 μg/ml pepstatin A, 1 mM DTT, and […]) for 30 minutes on ice and centrifuged at 13×10^3 g for 25 minutes at 4° C. The protein levels of the obtained lysates were normalized using BCA Protein Assay Kit (Pierce) and separated by SDS-polyacrylamide gel electrophoresis (12.5% acrylamide). Transfer to polyvinylidene difluoride membranes (Millipore) was followed by obstruction of membranes with blocking buffer containing 5% (w/v) non-fat dry milk dissolved in PBST [1×PBS containing 0.05% (v/v) Tween 20] for 1 hour at room temperature. Membranes were then incubated with corresponding primary antibodies overnight at 4° C. The membranes were then washed (3×15 min each) with PBST and incubated with secondary antibodies conjugated to horse-radish peroxidase, obtained from Biorad, and used at a dilution of 1:10,000. Bound antibodies were detected using enhanced chemiluminescence (Biorad).

[5] = tested on: sixty cell lines; experiment: NCI 60 cell one-dose assay; format: cell-based; details: result in words
[6] = Homo sapiens, HCT-116, zinc-binding group screen, growth inhibition, HCT116 cells, maximum concentration of 100 μM, read-out: HCT116 IC50
[7] = Homo sapiens, HCT-116, cap group SAR, HCT116 cell line, maximum concentration of 40 μM, read-out: IC50
[8] = Homo sapiens, HCT-116, read-out: IC50 (μM) HCT116
[9] = zinc-binding group screen, growth inhibition, HCT116 cells, maximum concentration of 100 μM

CC(=O)C(=O)NCCCCC(=O)Nc1ccccc1
IC50 [1, 6]: > 100 µM

CC(=O)C(=O)NCCCCCC(=O)Nc1ccccc1
IC50 [1, 6]: > 100 µM

CC(=O)C(=O)NCCCCCCC(=O)Nc1ccccc1
IC50 [1, 6]: > 100 µM

C/C(=N\O)C(=O)NCCCCC(=O)Nc1ccccc1
IC50 [1, 6]: > 100 µM

C/C(=N\O)C(=O)NCCCCCC(=O)Nc1ccccc1
IC50 [1, 6]: > 100 µM

C/C(=N\O)C(=O)NCCCCCCC(=O)Nc1ccccc1
IC50 [1, 6]: > 100 µM

NC(=O)C(=O)NCCCCC(=O)Nc1ccccc1
IC50 [1, 6]: > 100 µM

NC(=O)C(=O)NCCCCCC(=O)Nc1ccccc1
IC50 [1, 6]: > 100 µM

NC(=O)C(=O)NCCCCCCCC(=O)Nc1ccccc1
IC50 [1, 6]: > 100 µM

OC(c1c(F)c(F)c(-n2cc(-c3ccccc3)nn2)c(F)c1F)C(F)(F)F (stereo not shown)
IC50 [1, 6]: > 100 µM

OC(O)(c1c(F)c(F)c(-n2cc(-c3ccccc3)nn2)c(F)c1F)C(F)(F)F
IC50 [1, 6]: > 100 µM

O=C(CCCCCNC(=O)c1ccc[nH]1)Nc1ccccc1
IC50 [1, 6]: > 100 µM

O=C(CCCCNC(=O)c1cc(=O)c(O)co1)Nc1ccccc1
IC50 [1, 6]: > 100 µM

O=C(CCCCCNC(=O)c1cc(=O)c(O)co1)Nc1ccccc1
IC50 [1, 6]: > 100 µM

O=C(CCCCCCNC(=O)c1cc(=O)c(O)co1)Nc1ccccc1
IC50 [1, 6]: > 100 µM

O=C(CCCCCCC(O)C(F)(F)F)Nc1ccccc1 (stereo not shown)
IC50 [1, 7]: > 40 µM

O=C(CCCCCNC(=O)C(O)(O)C(F)(F)F)Nc1ccccc1 [Compound 10b, N-phenyl-6-(3,3,3-trifluoro-2,2-dihydroxypropanamido)hexanamide]
IC50 [1, 8]: 54.4 µM | IC50 [1, 6]: 54.4 µM | HCT116 IC50 [1, 9]: demonstrated antiproliferative activity | melting point: 103 to 108 °C

O=C(CCCCCCNC(=O)C(O)(O)C(F)(F)F)Nc1ccccc1 [Compound 10c, N-phenyl-7-(3,3,3-trifluoro-2,2-dihydroxypropanamido)heptanamide]
IC50 [1, 8]: 9.14 µM | melting point: 123 to 128 °C

COc1cccc(NC(=O)CCCCCCNC(=O)C(O)(O)C(F)(F)F)c1 [Compound 59, N-(3-methoxyphenyl)-7-(3,3,3-trifluoro-2,2-dihydroxypropanamido)heptanamide]
IC50 [1, 7]: 6.11 µM | melting point: 120 to 125 °C

O=C(CCCCCCNC(=O)C(O)(O)C(F)(F)F)Nc1nccs1 [Compound 60, N-(thiazol-2-yl)-7-(3,3,3-trifluoro-2,2-dihydroxypropanamido)heptanamide]
time over which parent M+1 peak did not disappear ([2]; NADPH, 37° C., LC-ESI-MS, aliquots at 1h, 2 hrs): over 2 hours | metabolic reduction to the alcohol ([2]; result in words): no reduction to the alcohol | melting point: 137 to 142 °C

O=C(CCCCCCNC(=O)C(O)(O)C(F)(F)F)Nc1ccc(Cl)cc1 [Compound 64, N-(4-chlorophenyl)-7-(3,3,3-trifluoro-2,2-dihydroxypropanamido)heptanamide]
TGI [3]: 26.92 µM

O=C(CCCCCCNC(=O)C(O)(O)C(F)(F)F)Nc1ccc(Br)cc1 [Compound 65, N-(4-bromophenyl)-7-(3,3,3-trifluoro-2,2-dihydroxypropanamido)heptanamide]
TGI [3]: 20.89 µM

COc1ccccc1NC(=O)CCCCCCNC(=O)C(O)(O)C(F)(F)F [Compound 66, N-(2-methoxyphenyl)-7-(3,3,3-trifluoro-2,2-dihydroxypropanamido)heptanamide]
IC50 [1, 7]: 10.1 µM | melting point: 105 to 110 °C

O=C(CCCCCCNC(=O)C(O)(O)C(F)(F)F)Nc1nc(-c2ccccc2)c(-c2ccccc2)s1 [Compound 68, N-(4,5-diphenylthiazol-2-yl)-7-(3,3,3-trifluoro-2,2-dihydroxypropanamido)heptanamide]
IC50 [1, 7]: 29.9 µM | melting point: 143 to 148 °C

O=C(CCCCCCNC(=O)C(O)(O)C(F)(F)F)Nc1ccc(-c2ccccc2)cc1 [Compound 69, N-([1,1′-biphenyl]-4-yl)-7-(3,3,3-trifluoro-2,2-dihydroxypropanamido)heptanamide]
TGI [3]: 15.14 µM

O=C(CCCCCCNC(=O)C(O)(O)C(F)(F)F)Nc1ccccc1Br [Compound 75, N-(2-bromophenyl)-7-(3,3,3-trifluoro-2,2-dihydroxypropanamido)heptanamide]
IC50 [1, 7]: 14.5 µM | melting point: 108 to 113 °C

O=C(CCCCCCNC(=O)C(O)(O)C(F)(F)F)Nc1ncc(-c2ccc(Br)cc2)s1 [Compound 85, N-(5-(4-bromophenyl)thiazol-2-yl)-7-(3,3,3-trifluoro-2,2-dihydroxypropanamido)heptanamide]
PARP1 cleavage (cleaved PARP1) [4]: Dose-dependent elevation of cleaved PARP1 was detectable | TGI [3]: 11.4 µM | cytostatic / cytotoxic activity in NCI 60 assays [5]: cytotoxic effects

O=C(CCCCCCNC(=O)C(O)(O)C(F)(F)F)Nc1ncc(-c2ccc(O)cc2)s1 [Compound 86, N-(5-(4-hydroxyphenyl)thiazol-2-yl)-7-(3,3,3-trifluoro-2,2-dihydroxypropanamido) heptanamide]
melting point: 145 to 150 °C

CCOc1ccc(-c2cnc(NC(=O)CCCCCCNC(=O)C(O)(O)C(F)(F)F)s2)cc1 [Compound 87, N-(5-(4-ethoxyphenyl)thiazol-2-yl)-7-(3,3,3-trifluoro-2,2-dihydroxypropanamido)heptanamide]
IC50 [1, 7]: 4.05 µM | melting point: 138 to 143 °C

O=C(CCCCCCCNC(=O)c1cc(=O)c(O)co1)Nc1ccccc1 [Compound 89]
HCT116 IC50 [1, 9]: inactive

O=C(CCCCCCNC(=O)C(O)C(F)(F)F)Nc1nccs1 (stereo not shown) [Compound 92]
IC50 ([1]; cap group SAR, HCT116 cell line, maximum concentration of 40 μM): inactive

O=C(CCCCCCCNC(=O)c1cc(=O)c(O)co1)Nc1ccccc1 [drawing 33]
IC50 [1, 6]: > 100 µM

O=C(CCCCCCNC(=O)C(O)C(F)(F)F)Nc1nccs1 (stereo not shown) [drawing 78]
IC50 [1, 7]: > 40 µM
